Source: patent publication US20150132747A1, “Treatment of Neurodegeneration and Neuroinflammation” (BIOGEN IDEC MA INC., priority 2009, published 2015)
Where a name gives a salt, the structure may show the parent alone.

What was measured:
Nrf2 [1] = assay: Nrf2 Western blotting, primary human astrocytes; type: cell-based; conditions: total cell lysates, GAPDH control, FIG. 9
Procedure: (§1) Total cell lysates were prepared from the astrocyte cultures treated as indicated above. Nrf2 was detected by Western blotting. GAPDH was included as a housekeeping protein control.

primary astrocytes = assay: Gene expression profiling of LPS stimulated primary astrocytes; type: cell-based, rat; conditions: LPS 0, 10, 100 ng/ml; DMF 0, 3, 10, 30 μM, FIG. 5
Procedure: Primary astrocytes were treated with LPS at 0, 10, and 100 ng/ml, as indicated, and also treated with DMF at 0, 3, 10, or 30 μM as indicated. The magnitude of expression of each gene under each condition was scaled from 0 to 1, so that differences in color represent changes in expression of each gene as the conditions varied. The darkest green color represents no detectable expression (0), while the brightest red color represents the highest expression measured for that gene (1). […] The induced expression of many of the markers was suppressed by DMF treatment.
Direct effects of BG00012 on specific astrocytic and microglial cells were tested in vitro using primary rat astrocytes and RAW264.7 macrophage cells.

rat spinal cords (EAE) = assay: Histology and morphometry of lumbar spinal cord sections of EAE rats (GFAP, IBA-1, Luxol Fast Blue); type: in vivo
Procedure: Lumbar spinal cord sections were prepared as FFPE sections for immunohistochemistry and processed on DAKO autostainer using GFAP antibody (DAKO), IBA-1 (Wako), CD3 (DAKO). Aperio Spectrum Color Deconvolution software was used for morphometric analysis. […] Panels (a) and (b) are from a rat treated with vehicle alone at 5× and 20× magnification, respectively, while panels (c) and (d) are from a rat treated with 100 mg/kg DMF, shown at 5× and 20× magnification, respectively. […] Morphometry analysis of EAE spinal cords was performed with Aperio software. Histological alterations were quantified with Aperio Image Scope software v10.1. The Color Deconvolution algorithm was used to select intensity thresholds either for brown DAB staining (GFAP and IBA-1 Immunostains) or for bright turquoise blue staining (Luxol Fast Blue). Positive staining was determined by the percent of strong positive stained pixels for each intensity threshold. Three lumbar spinal cord sections were quantitated per rat and the values for percent strong positive pixels were averaged for the final intensity value.

primary rat astrocytes [2] = assay: Quantitative PCR of gene expression in primary cultured astrocytes, with or without LPS; type: cell-based
Procedure: Rat astrocytes from cortex, hippocampus and striatum (Lonza clontech) were cultured as described by manufacturers protocol. Limiting dilutions of DMF in DMSO were added to cultures for 6 or 24 hours and stimulated with E. Coli LPS (Sigma). RNA was prepared using QIAgen Rneasy method. […] It is also apparent from the data that NQO1 is induced at a higher level by exposure to DMF for 24 hrs compared to induction by a 6 hour exposure. Direct effects of BG00012 on specific astrocytic and microglial cells were tested in vitro using primary rat astrocytes and RAW264.7 macrophage cells.

[3] = system: rat EAE (MOG/IFA immunized Brown Norway rats); assay: Rat EAE model, clinical score; type: in vivo; conditions: FIG. 1A
Procedure: Female Brown Norway rats (Charles River Laboratories) were immunized intradermally at the base of the tail with MOG 1-125 100 ug/rat in IFA at day 0. Day 3 DMF (BG00012) qd 5, 25, 50, 100, 200 mg/kg delivered orally as a suspension in 0.8% HPMC. N=6 per group. Scoring 0=no disease, 1=tail paralysis, 2=hind limb weakness, 3=hind limb paralysis, 4=hind limb paralysis and forelimb weakness, 5=moribund or dead. Experimental in vivo procedures were performed in accordance with Institutional Animal Committee guidelines crEAE was induced by intradermal MOG/IFA immunization in Brown Norway rats. BG00012 was administered orally at a daily interval beginning three days after immunization. […] For the 100 mg/kg treatment group, average disease score at day 28 was 0.71 (n=6, SD=1.17) compared to 2.29 (n=6, SD=1.29) for the vehicle group.

Nrf2 [4] = assay: Nrf2 Western blotting, primary rat astrocytes; type: cell-based; conditions: total cell lysates, GAPDH control, FIG. 9
Procedure: as §1

primary rat astrocytes [5] = assay: Global gene expression analysis (Affymetrix GeneChip) in astrocytes treated with DMF; type: cell-based; conditions: p<10^−7 versus untreated astrocytes, FIG. 10
Procedure: Global analysis of gene expression in astrocytes treated with DMF was performed using the Affymetrix GeneChip technology. […] The resulting gene list was annotated using the Ingenuity IPA database. […] Specific genes involved in cytoprotection and glutathione metabolism, identified in this assay, include, but are not limited to, Gsta2, Gsta3, Gclc, Ggt1, Txnrd1, Srxn1, Sqstm1, and Nqo1.

[6] = system: human spinal cord astrocytes; assay: Glutathione, metabolic activity and viability of cultured human spinal cord astrocytes; type: cell-based; conditions: 24 hr MMF titration, FIG. 6C
Procedure: Primary cultures of human spinal cord astrocytes were treated for 24 hr with a titration of MMF or DMSO as a diluent control. Following 24 hr incubation with compound, cells were washed 1× with growth media and incubated with the cell-permeant substrate monochlorobimane. When bound to glutathione this substrate increases fluorescence. […] FIG. 6A. Similar MMF treated cells were also incubated with the cell permeant substrate resazurin, which increases fluorescence upon reduction to resorufin by cellular redox mechanisms and is used as a measure of cellular metabolic activity (CellTiter-Blue assay). […] FIG. 6B. To ensure the increases in glutathione and metabolic activity were not simply due to cellular proliferation in response to MMF treatment, parallel dishes of cells were incubated with calcein AM. Cellular esterases cleave this molecule to generate a fluorescent metabolite, which provides a measure of cell viability and relative total cell numbers. […] FIG. 6C.

[7] = system: human spinal cord astrocytes; assay: H2O2 challenge of human spinal cord astrocytes: viability, metabolism, ATP; type: cell-based; conditions: FIG. 8C
Procedure: In another experiment, primary cultures of human spinal cord astrocytes were treated for 24 hr with a titration of MMF or DMSO as a diluent control. Following 24 hr incubation with compound, cells were washed 1× with HBSS and challenged with […] H2O2 for two hours, then washed in normal growth media, then incubated for an additional 24 hours.

[8] = system: human spinal cord astrocytes; assay: H2O2-induced Ca++ mobilization in human spinal cord astrocytes (Calcium4 dye); type: cell-based; conditions: Astrocyte, 24 hr MMF, 50 mM H2O2, FIG. 7C, read-out: EC50, protection against H2O2-induced Ca++ mobilization (non-linear regression)
Procedure: In another experiment, primary cultures of human spinal cord astrocytes were treated for 24 hr with a titration of MMF or DMSO as a diluent control. Following 24 hr incubation with compound, cells were washed 1× with HBSS and incubated with Calcium4 (Molecular Devices) loading dye. This dye permeates into cells and increases fluorescence upon binding of free intracellular Ca^++. Cells were then challenged with 50 mM H2O2 and monitored for changes in fluorescence. […] FIG. 7C.

EC50 [8]	SMILES	levels of Nrf2 (Western blotting), primary human astrocytes (Nrf2 [1])	LPS-induced expression of Ccl20, Ccl3, Ccl4, Cxcl1, Cxcl10, Cxcl2, Cxcl3, Cxcl6, IL1a, II1b, Tnf, Ifit3, Zc3h12a (primary astrocytes)	activated astrocytes in grey matter of spinal cords (GFAP antibody) (rat spinal cords (EAE); 100 mg/kg DMF versus vehicle alone, FIG. 3)	myelin loss during EAE in rat spinal cords (Luxol Fast Blue morphometry) (rat spinal cords (EAE); FIG. 12)	LPS induced TNF expression (quantitative PCR) (primary rat astrocytes [2]; DMF 24 hours, LPS 0, 10, 30 ng/ml 4 hrs prior to harvest, FIG. 4B)	GFAP expression (quantitative PCR) (primary rat astrocytes [2]; DMF for 6 hrs and 24 hrs, FIG. 4A)	NQO1 expression (quantitative PCR) (primary rat astrocytes [2]; DMF for 6 hrs and 24 hrs, FIG. 4C)	EAE disease ([3]; 200 mg/kg)	EAE symptoms ([3]; various doses (5-200 mg/kg qd oral from day 3))	levels of Nrf2 (Western blotting), primary rat astrocytes (Nrf2 [4])	expression of Nrf2 target genes (incl. glutathione metabolism genes) (primary rat astrocytes [5])	cell viability and relative total cell numbers (calcein AM) [6]	cellular ATP levels at the highest concentration of MMF [7]
	COC(=O)/C=C/C(=O)OC [DMF, dimethyl fumarate]	increase levels of Nrf2	strongly suppressed	fewer activated astrocytes	diminishes myelin loss	repressed by DMF in a dose dependent manner	inhibits GFAP expression in a concentration dependent manner	induces NQO1 expression in a concentration dependent manner	completely abrogated disease	reduced EAE symptoms in a dose-dependent manner	increase levels of Nrf2	activates expression of Nrf2 target genes		
5.4 µM	COC(=O)/C=C/C(=O)O [MMF, monomethyl fumarate]												No substantial concentration-dependent changes	appeared to reduce cellular ATP levels
